Measured values from publication PMC6835155, “Lessons from LIMK1 enzymology and their impact on inhibitor design” (Biochemical Journal, 2019).
Structures can show the parent of a compound that is named as a salt.

Tests used:
LIMK1KD = biological target: T1, LIMK1KD (Homo sapiens, UniProt P53667); assay: Differential (dynamic) scanning fluorimetry (DSF) assay, LIMK1KD; type: binding; conditions: 2 µM LIMK1KD, compound 10 µM, single shot; for ΔTm at 10 µM: read-out: TM Shift LIMK1 (K)
T1 construct: His6 (N, cleaved yes); made in house; host or cells: baculovirus; Sf9 for virus, TriEx insect cells for expression

LIMK2KD = biological target: T2, LIMK2KD (Homo sapiens, UniProt P53671); assay: Differential (dynamic) scanning fluorimetry (DSF) assay, LIMK2KD; type: binding; conditions: LIMK2KD, compound 10 µM, single shot; for ΔTm at 10 µM: read-out: TM Shift LIMK2 (K)
T2 construct: The cDNA coding for LIMK2 residues 330 to 632 was PCR amplified; His6 (N, cleaved yes); made in house; host or cells: baculovirus; Sf9 for virus, TriEx insect cells for expression
T2 sequence (P53671 330-632): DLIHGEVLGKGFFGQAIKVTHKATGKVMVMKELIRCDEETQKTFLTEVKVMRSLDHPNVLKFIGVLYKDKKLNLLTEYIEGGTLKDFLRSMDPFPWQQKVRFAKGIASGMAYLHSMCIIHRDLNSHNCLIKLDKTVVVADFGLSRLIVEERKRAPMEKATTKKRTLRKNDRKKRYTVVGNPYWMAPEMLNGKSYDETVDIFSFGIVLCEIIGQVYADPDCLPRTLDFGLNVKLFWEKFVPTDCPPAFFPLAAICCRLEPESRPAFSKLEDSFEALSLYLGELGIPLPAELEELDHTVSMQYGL

T1 sequence (P53667 330-637): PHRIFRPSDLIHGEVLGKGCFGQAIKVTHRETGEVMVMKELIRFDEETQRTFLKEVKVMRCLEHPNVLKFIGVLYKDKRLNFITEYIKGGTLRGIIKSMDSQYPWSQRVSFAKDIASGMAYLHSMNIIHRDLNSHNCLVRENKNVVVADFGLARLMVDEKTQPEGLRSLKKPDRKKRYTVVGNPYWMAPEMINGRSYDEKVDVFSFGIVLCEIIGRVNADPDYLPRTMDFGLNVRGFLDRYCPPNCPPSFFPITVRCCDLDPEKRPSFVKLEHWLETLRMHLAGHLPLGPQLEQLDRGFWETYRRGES

| SMILES | ΔTm at 10 µM (LIMK1KD) | ΔTm at 10 µM (LIMK2KD) | further results |
| --- | --- | --- | --- |
| CC(C)c1cnn2c(NCc3ccccc3)cc(NCCCCCCN)nc12.Cl [BS-181 HCl] |  |  | TM Shift LIMK1 (K) (LIMK1KD): 0.7 K; TM Shift LIMK2 (K) (LIMK2KD): 1.7 K |
| O=C(NCCCNc1nc(Nc2cccc(NC(=O)N3CCCC3)c2)ncc1I)c1cccs1 [BX-795] | 5 °C | 4.7 °C |  |
| O=C(Nc1cccc(Nc2ncc(Br)c(NCCc3cnc[nH]3)n2)c1)N1CCCC1 [BX-912] |  |  | TM Shift LIMK1 (K) (LIMK1KD): 3.6 K; TM Shift LIMK2 (K) (LIMK2KD): 2.8 K |
| Cc1ccc(NC(=O)c2ccc(CN3CC[C@H](N(C)C)C3)c(C(F)(F)F)c2)cc1Nc1nccc(-c2cncnc2)n1 [Bafetinib] | 2.5 °C | 1.1 °C |  |
| COC(=O)[C@]12CCC(C)(C)C[C@H]1[C@H]1C(=O)C=C3[C@@]4(C)C=C(C#N)C(=O)C(C)(C)[C@@H]4CC[C@@]3(C)[C@]1(C)CC2 [Bardoxolone Methyl] | -1 °C | 0.8 °C |  |
| CCS(=O)(=O)N1CC(CC#N)(n2cc(-c3ncnc4[nH]ccc34)cn2)C1 [Baricitinib] | 1.6 °C | 1 °C |  |
| COc1cc(Nc2c(C#N)cnc3cc(OCCCN4CCN(C)CC4)c(OC)cc23)c(Cl)cc1Cl [Bosutinib (SKI-606), Bosutinib] | 0.1 °C | 1.3 °C |  |
| Cc1cc2c(F)c(Oc3ncnn4cc(OC[C@@H](C)O)c(C)c34)ccc2[nH]1 [Brivanib (BMS-540215), Brivanib] | 0.8 °C | 0.3 °C |  |
| Cc1cc2c(F)c(Oc3ncnn4cc(OC[C@@H](C)OC(=O)[C@H](C)N)c(C)c34)ccc2[nH]1 [Brivanib Alaninate (BMS-582664), Brivanib Alaninate] | 0.7 °C | 0 °C |  |
| Nc1cc(C(F)(F)F)c(-c2cc(N3CCOCC3)nc(N3CCOCC3)n2)cn1 [Buparlisib] |  |  | TM Shift LIMK1 (K) (LIMK1KD): 0.6 K; TM Shift LIMK1 (K) (LIMK1KD; listed as BKM120 (NVP-BKM120, Buparlisib)): -1.9 K; TM Shift LIMK2 (K) (LIMK2KD; 10 µM): 0.0 K; TM Shift LIMK2 (K) (LIMK2KD; listed as BKM120 (NVP-BKM120, Buparlisib), 10 µM): 0.7 K |
| O=C(/C=C/c1ccc(O)c(O)c1)c1ccc(O)cc1O [Butein] | -0.6 °C | 1.9 °C |  |
| NC1(Cc2ccc(Cl)cc2)CCN(c2ncnc3[nH]ccc23)CC1 [CCT128930] |  |  | TM Shift LIMK1 (K) (LIMK1KD): 0.4 K; TM Shift LIMK2 (K) (LIMK2KD): 1.0 K |
| CN(C)c1ccc(-c2nc3ncc(Cl)c(N4CCN(CC(=O)Nc5nccs5)CC4)c3[nH]2)cc1 [CCT129202] |  |  | TM Shift LIMK1 (K) (LIMK1KD): 2.4 K; TM Shift LIMK2 (K) (LIMK2KD): 4.6 K |
| Cc1cc(CN2CCN(c3c(Br)cnc4nc(-c5ccc(N6CCN(C)CC6)cc5)[nH]c34)CC2)no1 [CCT137690] |  |  | TM Shift LIMK1 (K) (LIMK1KD): 3.4 K; TM Shift LIMK2 (K) (LIMK2KD): 3.5 K |
| CN1CCN(c2cccc(Nc3nc4c(-c5ccc(S(C)(=O)=O)cc5)cccn4n3)c2)CC1 [CEP-33779] |  |  | TM Shift LIMK1 (K) (LIMK1KD): 1.0 K; TM Shift LIMK2 (K) (LIMK2KD): 1.5 K |
| O=C(NC(NC(=S)Nc1ccc(F)c([N+](=O)[O-])c1)C(Cl)(Cl)Cl)C(c1ccccc1)c1ccccc1 (stereo not shown) [CGK 733] |  |  | TM Shift LIMK1 (K) (LIMK1KD): 0.7 K; TM Shift LIMK2 (K) (LIMK2KD): 4.2 K |
| CS(=O)(=O)N1CCc2c(-c3cnc(N)nc3)nc(N3CCOCC3)nc21 [CH5132799] | 1.3 °C | 0.1 °C |  |
| O=c1[nH]c2ccc(Cl)cc2c(N[C@@H]2CN3CCC2CC3)c1-c1nc2ccccc2[nH]1 [CHIR-124] |  |  | TM Shift LIMK1 (K) (LIMK1KD): 2.2 K; TM Shift LIMK2 (K) (LIMK2KD): -1.7 K |
| Cc1c[nH]c(-c2cnc(NCCNc3ccc(C#N)cn3)nc2-c2ccc(Cl)cc2Cl)n1 [CHIR-99021 (CT99021) HCl] | 3.1 °C | -0.3 °C |  |
| C=CC(=O)Nc1cccc(Nc2nc(Nc3ccc(Oc4ccnc(C(=O)NC)c4)cc3)ncc2F)c1 [CNX-774] |  |  | TM Shift LIMK1 (K) (LIMK1KD): 1.6 K; TM Shift LIMK2 (K) (LIMK2KD): 1.2 K |
| C=CC(=O)Nc1cccc(Nc2nc(Nc3ccc(N4CCN(C(C)=O)CC4)cc3OC)ncc2C(F)(F)F)c1 [CO-1686 (AVL-301)] | 0.4 °C | -0.4 °C |  |
| N#CCNC(=O)c1ccc(-c2ccnc(Nc3ccc(N4CCOCC4)cc3)n2)cc1 [CYT387] |  |  | TM Shift LIMK1 (K) (LIMK1KD): 1.2 K; TM Shift LIMK2 (K) (LIMK2KD; 10 µM): 0.8 K |
| COc1cc2nccc(Oc3ccc(NC(=O)C4(C(=O)Nc5ccc(F)cc5)CC4)cc3)c2cc1OC [Cabozantinib (XL184, BMS-907351), Cabozantinib] | 2.5 °C | 0.6 °C |  |
| C=CC(=O)Nc1cc2c(Nc3ccc(F)c(Cl)c3)ncnc2cc1OCCCN1CCOCC1 [Canertinib (CI-1033), Canertinib] | 0.9 °C | 0.5 °C |  |
| COc1cc2c(Oc3ccc4[nH]c(C)cc4c3F)ncnc2cc1OCCCN1CCCC1 [Cediranib (AZD2171), Cediranib] | -0.2 °C | 0.5 °C |  |
| Cc1cc(O)c2c(c1)C(=O)c1cccc(O)c1C2=O [Chrysophanic Acid] | 0.9 °C | 1.3 °C |  |
| CC1(COc2ccc3c(c2)ncn3-c2ccc3cccc(N4CCC(N)CC4)c3n2)COC1 [Crenolanib (CP-868596), Crenolanib] | 1 °C | 0.5 °C |  |
| C[C@@H](Oc1cc(-c2cnn(C3CCNCC3)c2)cnc1N)c1c(Cl)ccc(F)c1Cl [Crizotinib (PF-02341066), Crizotinib] | 3.9 °C | 1.4 °C |  |
| COc1cc2ncnc(Nc3ccc(F)c(Cl)c3)c2cc1NC(=O)/C=C/CN1CCCCC1 [Dacomitinib (PF299804, PF299), Dacomitinib] | 0.9 °C | 0.2 °C |  |

Further lines, with some results ahead:

| ΔTm at 10 µM (LIMK1KD) | ΔTm at 10 µM (LIMK2KD) | SMILES | further results |
| --- | --- | --- | --- |
| 0.7 °C |  | Cc1c(NC(=O)OC[C@@H]2COCCN2)cn2ncnc(Nc3ccc4c(cnn4Cc4cccc(F)c4)c3)c12 [BMS-599626] | TM Shift LIMK2 (K) (LIMK2KD; 10 µM): -0.4 K; TM Shift LIMK2 (K) (LIMK2KD; listed as AC480 (BMS-599626), 10 µM): 0.9 K |
| 3.8 °C | -0.2 °C | CCOc1ccn(-c2ccc(F)cc2)c(=O)c1C(=O)Nc1ccc(Oc2ccnc(N)c2Cl)c(F)c1 [BMS-777607] |  |
| 1.5 °C | 2 °C | Nc1nccc(Oc2ccc(NC(=O)c3c[nH]cc(-c4ccc(F)cc4)c3=O)cc2F)c1Cl [BMS-794833] |  |
| 1.8 °C | 0.3 °C | CCn1c(C(=O)N(C2CC2)C2CC2)cc2c3c(ncn3C)c(Nc3cc(C)n(C)n3)nc21 [BMS-911543] |  |
| -0.5 °C | -0.2 °C | Cc1nc(NC(=O)N2CCC[C@H]2C(N)=O)sc1-c1ccnc(C(C)(C)C(F)(F)F)c1 [BYL719] |  |
| -0.2 °C | -0.1 °C | COc1cc2ncnc(Oc3cccc(NC(=O)Nc4cc(C(C)(C)C(F)(F)F)on4)c3)c2cc1OC [CEP-32496] |  |
| 0.9 °C | 1.9 °C | COCCOc1ccc2c(c1)ncn2-c1ccc2cccc(N3CCC(N)CC3)c2n1 [CP-673451] |  |
| 0.4 °C | -0.8 °C | COCC(=O)NC/C=C/c1ccc2ncnc(Nc3ccc(Oc4ccc(C)nc4)c(C)c3)c2c1 [CP-724714] |  |
| 0.8 °C | 1.6 °C | C#Cc1cccc(Nc2ncnc3cc(OC)c(OCCCCCCC(=O)NO)cc23)c1 [CUDC-101] |  |
| 0.3 °C | -0.1 °C | COc1ccc(-c2nc(N3CCOCC3)c3sc(CN(C)c4ncc(C(=O)NO)cn4)cc3n2)cn1 [CUDC-907] |  |
| 3.7 °C | 1.6 °C | Cc1nc(N)sc1-c1ccnc(Nc2ccc(N3CCOCC3)cc2)n1 [CYC116] |  |
| -0.4 °C | -0.1 °C | CC(C)(C)NS(=O)(=O)c1cncc(-c2cc(F)c3nc(N)nn3c2)c1 [CZC24832] |  |
